Reference: ChEMBL document CHEMBL4418300, “Uses of fahd1” (2016)

Biological target: T1, Oxaloacetate tautomerase FAHD1, mitochondrial (Homo sapiens, UniProt Q6P587)
T1 sequence (Q6P587 whole entry): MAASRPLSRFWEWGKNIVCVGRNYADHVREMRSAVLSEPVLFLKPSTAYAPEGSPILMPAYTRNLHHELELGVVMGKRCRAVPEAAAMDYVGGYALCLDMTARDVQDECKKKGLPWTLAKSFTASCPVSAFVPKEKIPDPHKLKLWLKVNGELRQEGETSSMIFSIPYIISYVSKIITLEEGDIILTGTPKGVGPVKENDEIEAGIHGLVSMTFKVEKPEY
Experiment: Inhibition of wild-type recombinant N-terminal His6 and S-tagged full-length human FAHD1 expressed in Escherichia coli using oxaloacetate as substrate by photometric analysis

- IC50: 20 µM
Structure (SMILES): O=C([O-])C(=O)[O-].[Na+].[Na+] [SODIUM OXALATE]
